Assay results taken from paper PMC8198750, “Synthesis of Novel Halogenated Heterocycles Based on o-Phenylenediamine and Their Interactions with the Catalytic Subunit of Protein Kinase CK2” (Molecules, 2021).
Like-named read-outs stand apart in the source and are kept apart here.

Assays:
hCK2α [1] = molecular target: T1, hCK2α (Homo sapiens, UniProt P68400); assay: nanoDSF thermal shift assay (low-volume differential scanning fluorimetry); format: binding
T1 construct: made in house
Protocol: Binding affinities of the newly synthesized compounds towards hCK2α were assessed with the low-volume differential scanning fluorimetry (nanoDSF). The shift of the temperature of thermal denaturation in the presence of 10-fold excess of a particular ligand relative to the apo form of hCK2α (ΔTm) can be used as a semi-qualitative measure of the binding affinity or inhibitory activity.
hCK2α was expressed and purified according to the method described previously. Thermal stability of 1:10 protein–ligand complexes was monitored on Prometheus (Nanotemper Technologies, München, Germany) using PR-C002 Prometheus NT.48 Standard Capillaries using temperature ramp of 20 to 80 °C with 1 °C/min heating rate. Temperature-induced variation in ratio fluorescence intensity at 330 and 350 nm was globally analyzed using the procedure described before. All experiments were performed in 25 mM Tris–HCl (pH 8, 0.5 M NaCl) with 2% (v/v) DMSO. Protein was kept in constant 2.5 μM concentration.

[2] = RP-HPLC chromatographic hydrophobicity index; format: physicochemical; conditions: C18, 2:1 methanol:20 mM aqueous ammonium formate pH 8; τ = (Tret − T0)/T0
Protocol: RP-HPLC method, a fast and efficient alternative for standard logD determination in octan-1-ol/water system, was used to assess the hydrophobicity of all synthesized compounds. This method has been successfully used in our laboratory for halogenated benzotriazole derivatives, including the evaluation of the effect of hydrophobicity on their binding to the catalytic subunit of protein kinase CK2 [24, 43].
Chromatographic hydrophobicity index (log(τ)) was determined with the reverse phase HPLC (RP-HPLC). Column: Nova-pak® C18 4 μm, 4.6 × 250 mm. Eluent: 2:1 methanol: 20 mM aqueous ammonium formate (pH = 8) (v/v). Flow: 0.7 mL/min. Detector wavelength: 280 nm. The individual retention times (Tret) were converted to a hydrophobicity scale according to the formula τ = (Tret − T0)/T0. where the retention time of unretained solvent (T0) was estimated to 300 s.

hCK2α [3] = molecular target: T1, hCK2α; assay: Inhibitory activity against human CK2α (ADP-Glo kinase assay); format: biochemical; conditions: inhibitor 1 nM–1 mM, triplicate
Protocol: The inhibitory effect of 8 selected compounds was monitored based on the luminescence measured with the SpectraMax iD3 Multi-Mode Microplate Reader (Molecular Devices, San Jose, CA, USA), using the previously described method with the aid of ADP-Glo kinase assay (Promega, Walldorf, Germany). Inhibitor concentration varied in the range of 1 nM–1 mM (see Supplementary Figure S38). Each experiment was repeated in triplicate and IC50 values were further estimated globally using the sigmoidal dose-response equation implemented in Origin 9.4 package (www.originlab.com, upgraded 20.07.27).

[4] = system: colorectal carcinoma HCT116p53−/−; assay: MTT cell viability assay, HCT116p53−/−; format: cell-based; conditions: Homo sapiens, 72 h
Source text: (§1) The following human cell lines were used in this study: (i) epidermoid carcinoma A-431 (ATCC® CRL-1555), (ii) colorectal carcinoma HCT116 (ATCC® CCL-247), (iii) colorectal carcinoma HCT116p53^−/−, and (iv) normal fibroblasts BJ (ATCC® CRL-2522). The HCT116p53^−/− cell line was a kind gift from professor Bert Vogelstein (John Hopkin’s University, Baltimore, MD, USA). The remaining cell lines were purchased from ATCC (Manassas, VA, USA) or Sigma Aldrich by Merck (Darmstadt, Germany).
(§2) Cells were cultured in Dulbecco’s modified Eagle’s or Roswell Park Memorial Institute (RPMI)-1640 medium supplemented with 10% or 15% fetal bovine serum (Gibco by Thermo Fisher Scientific, Waltham, MA, USA) under standard culture conditions (37 °C, 5% CO2) in a humidified incubator with atmospheric oxygen.
(§3) The viability of cells was assayed by measuring the conversion of MTT (3-(4,5-dimethylthiazol-2-yl)-2,5-diphenyltetrazolium bromide) to the formazan (the rate of this reaction is proportional to the number of surviving cells). Cells were seeded in a 96-well plate at a density of 1500–2500 cells per well, 24 h before treatment. Treatment with tested compounds and cisplatin (0.25–160 µM) was performed for 72 h. MTT stock solution (Sigma-Aldrich) was added at the final concentration 0.5 mg/mL. After 2 h of incubation at 37 °C, water-insoluble formazan was dissolved in a lysis buffer containing 20% SDS, 50% DMF, 2.5% hydrochloric acid, and 2.5% acetic acid. Optical densities were measured at 570 nm using a scanning multi-well spectrophotometer ([…] Detection Platform; Beckman Coulter, Brea, CA, USA).

[5] = system: epidermoid carcinoma A-431; assay: MTT cell viability assay, A-431; format: cell-based; conditions: Homo sapiens, 72 h
Source text: as §1, §2, §3

normal fibroblasts BJ = assay: MTT cell viability assay, BJ; format: cell-based, human; conditions: for IC50: Homo sapiens, Fibroblast, MTT, 72 h
Source text: as §1, §2, §3

[6] = system: colorectal carcinoma HCT116; assay: MTT cell viability assay, HCT116; format: cell-based; conditions: Homo sapiens, HCT-116, 72 h, read-out: IC50 HTC116
Source text: as §1, §2, §3

[7] = 10-fold excess of ligand (1:10 protein–ligand), 2.5 μM protein, relative to apo hCK2α, 2% DMSO, pH 8
[8] = 10-fold excess of ligand (1:10 protein–ligand), 2.5 μM protein, relative to apo hCK2α, 2% DMSO, pH 8, read-out: ΔTm

T1 sequence (P68400 whole entry): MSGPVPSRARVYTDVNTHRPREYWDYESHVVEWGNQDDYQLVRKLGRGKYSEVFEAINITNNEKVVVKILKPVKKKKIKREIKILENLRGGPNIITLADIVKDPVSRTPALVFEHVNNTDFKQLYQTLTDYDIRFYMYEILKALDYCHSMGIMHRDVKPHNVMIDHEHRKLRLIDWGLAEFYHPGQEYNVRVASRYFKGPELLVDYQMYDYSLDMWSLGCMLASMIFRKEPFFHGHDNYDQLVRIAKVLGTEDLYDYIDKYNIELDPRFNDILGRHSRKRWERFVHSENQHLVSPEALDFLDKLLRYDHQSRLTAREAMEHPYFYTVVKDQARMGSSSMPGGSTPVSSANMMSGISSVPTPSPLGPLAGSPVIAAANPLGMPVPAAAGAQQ

Compound	log(τ) HPLC-derived hydrophobicity index [2]	ΔTm at 25 µM (hCK2α [1]; [8])	other results
6,7-dichloroquinoxaline-1,3-diol [Compound 7c]	−0.227		ΔTm (hCK2α [1]; [7]): 1.2 ± 0.1 °C
6,7-difluoroquinoxaline-1,3-diol [Compound 7b]	−0.548		ΔTm (hCK2α [1]; [7]): 0.2 ± 0.1 °C
Nc1ccccc1N [Compound 1a, benzo-1,2-diamine]	−0.651		ΔTm at 25 µM (hCK2α [1]; pH 8, read-out: ΔTm): -0.1 ± 0.1 °C
Nc1cc(F)c(F)cc1N [Compound 1b]	−0.591	-0.1 ± 0.1 °C	
Nc1cc(Cl)c(Cl)cc1N [Compound 1c]	−0.298	0.1 ± 0.1 °C	
Nc1cc(Br)c(Br)cc1N [Compound 1d]	−0.208	0.2 ± 0.1 °C	
Nc1cc(I)c(I)cc1N [Compound 1e, 4,5-diiodobenzene-1,2-diamine]	−0.093	1.7 ± 0.1 °C	
c1ccc2nsnc2c1 [Compound 2a, 2,1,3-benzothiadiazole]	0.009	0 °C	
Fc1cc2nsnc2cc1F [Compound 2b, 5,6-difluoro-2,1,3-benzothiadiazole]	0.169	-0.3 ± 0.1 °C	
Clc1cc2nsnc2cc1Cl [Compound 2c, 5,6-dichloro-2,1,3-benzothiadiazole]	0.179	0.2 ± 0.1 °C	
Brc1cc2nsnc2cc1Br [Compound 2d, 5,6-dibromo-2,1,3-benzothiadiazole]	0.461	0.2 ± 0.1 °C	
Ic1cc2nsnc2cc1I [Compound 2e, 5,6-diiodo-2,1,3-benzothiadiazole]	0.468	0.2 ± 0.1 °C	
FC(F)(F)c1nc2ccccc2[nH]1 [Compound 3a, 2-trifluoromethylo-1H-benzimidazole]	−0.270		ΔTm at 25 µM (hCK2α [1]; pH 8, read-out: ΔTm): 0.4 ± 0.1 °C
Fc1cc2nc(C(F)(F)F)[nH]c2cc1F [Compound 3b, 5,6-difluoro-2-trifluoromethylo-1H-benzimidazole]	−0.095	0.8 ± 0.1 °C	
FC(F)(F)c1nc2cc(Cl)c(Cl)cc2[nH]1 [Compound 3c, 5,6-dichlorlo-2-trifluoromethylo-1H-benzimidazole]	0.234	1.2 ± 0.1 °C	
FC(F)(F)c1nc2cc(I)c(I)cc2[nH]1 [Compound 3e, 5,6-diiodo-2-trifluoromethylo-1H-benzimidazole]	0.409	4.3 ± 0.1 °C	IC50 (hCK2α [3]): 7 ± 4 µM; IC50 [4]: 6 ± 1 µM; IC50 [5]: 7 ± 1 µM; IC50 (normal fibroblasts BJ): 55 ± 5 µM; selectivity index (normal fibroblasts BJ; relative to BJ fibroblasts): ~ 10; IC50 [6]: 6 ± 1 µM
OCc1nc2ccccc2[nH]1 [Compound 4a, 2-hydroxymethylo-1H-benzimidazole]	−0.579	0.4 ± 0.1 °C	
OCc1nc2cc(Cl)c(Cl)cc2[nH]1 [Compound 4c, 5,6-dichloro-2-hydroxymethylo-1H-benzimidazole]	−0.079	0.7 ± 0.1 °C	
OCc1nc2cc(Br)c(Br)cc2[nH]1 [Compound 4d, 5,6-dibromo-2-hydroxymethylo-1H-benzimidazole]	0.010	1.9 ± 0.1 °C	IC50 (hCK2α [3]): > 1000 µM; IC50 [4]: 28 ± 3 µM; IC50 [5]: 45 ± 5 µM; IC50 (normal fibroblasts BJ): 145 ± 15 µM; IC50 [6]: 21 ± 1 µM
OCc1nc2cc(I)c(I)cc2[nH]1 [Compound 4e, 5,6-diiodo-2-hydroxymethylo-1H-benzimidazole]	0.088	3.7 ± 0.1 °C	IC50 (hCK2α [3]): 25 ± 5 µM; IC50 [4]: 23 ± 2 µM; IC50 [5]: 39 ± 10 µM; IC50 (normal fibroblasts BJ): 15 ± 2 µM; IC50 [6]: 20 ± 2 µM
O=c1[nH]c2ccccc2[nH]1 [Compound 5a, 1H-benzo[d]imidazol-2(3H)-one]	−0.591	0.8 ± 0.1 °C	
O=c1[nH]c2cc(Cl)c(Cl)cc2[nH]1 [Compound 5c, 5,6-dichloro-1H-benzo[d]imidazol-2(3H)-one]	−0.084	0.8 ± 0.1 °C	
O=c1[nH]c2cc(Br)c(Br)cc2[nH]1 [Compound 5d, 5,6-dibromo-1H-benzo[d]imidazol-2(3H)-one]	0.003	1.8 ± 0.1 °C	IC50 (hCK2α [3]): > 1000 µM; IC50 [4]: 22 ± 3 µM; IC50 [5]: 180 ± 40 µM; IC50 (normal fibroblasts BJ): 40 ± 5 µM; IC50 [6]: 18 ± 3 µM
O=c1[nH]c2cc(I)c(I)cc2[nH]1 [Compound 5e, 5,6-diiodo-1H-benzo[d]imidazol-2(3H)-one]	0.082	2.4 ± 0.1 °C	IC50 (hCK2α [3]): 13 ± 2 µM
c1ccc2nccnc2c1 [Compound 6a, quinoxaline]	−0.295	-0.1 ± 0.1 °C	
Clc1cc2nccnc2cc1Cl [Compound 6c, 6,7-dichloroquinoxaline]	0.495	0.1 ± 0.1 °C	
Brc1cc2nccnc2cc1Br [Compound 6d, 6,7-dibromoquinoxaline]	0.588	0.4 ± 0.1 °C	
Ic1cc2nccnc2cc1I [Compound 6e, 6,7-diiodoquinoxaline]	0.618	0.4 ± 0.1 °C	
quinoxaline-1,3-diol [Compound 7a]	−0.699		ΔTm (hCK2α [1]; [7]): 0.1 ± 0.1 °C
